Measured values from US8759333B2, “Di-azetidinyl diamide as monoacylglycerol lipase inhibitors” (Janssen Pharmaceutica, NV, priority 2010, dated 2014).
Where a chain is given by its changes, count along the chain named.

Experiments:
[1] = biological target: T1, mutant MGL (mut-MGLL 11-313 L179S L186S) (Homo sapiens, UniProt Q99685, L169S/L176S); assay: MGL Enzyme Activity Assay, purified mutant MGL, 4MU-B substrate; format: biochemical; conditions: mutant MGL 5 nM, 4MU-B 10 μM, 37° C.; read-out: MGL mutant inh IC50
T1 construct: purified mutant MGL (mut-MGLL 11-313 L179S L186S)
T1 sequence (Q99685 1-303 L169S/L176S): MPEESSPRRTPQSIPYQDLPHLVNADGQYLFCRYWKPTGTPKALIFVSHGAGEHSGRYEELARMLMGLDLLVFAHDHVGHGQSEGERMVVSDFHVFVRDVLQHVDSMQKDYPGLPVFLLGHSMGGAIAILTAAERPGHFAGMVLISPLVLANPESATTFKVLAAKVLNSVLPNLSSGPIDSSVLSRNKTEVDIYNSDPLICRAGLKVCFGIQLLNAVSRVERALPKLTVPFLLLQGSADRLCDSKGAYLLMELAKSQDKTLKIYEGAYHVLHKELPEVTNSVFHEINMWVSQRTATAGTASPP
In short: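 Purified mutant MGL (5 nM final) with 10 μM 4MU-B in 20 mM PIPES pH 7.0, 150 mM NaCl, 0.001% Tween 20; compounds 17 to 0.0003 μM final. Fluorescence (ex 335/em 440 nm) followed 5 min at 37 °C; IC50 from fit of fractional activity versus inhibitor concentration.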

[2] = biological target: T2, wild type MGL (wt-MGLL 6H-11-313) (Homo sapiens, UniProt Q99685); assay: MGL Enzyme Activity Assay, purified wild type MGL, 4MU-B substrate; format: biochemical; conditions: wild type MGL 5 nM, 4MU-B 10 μM, 37° C.; read-out: MGL wild type inh IC50
T2 construct: purified wild type MGL (wt-MGLL 6H-11-313); 6H (hexahistidine) (N)
T2 sequence (Q99685 1-303): T1 sequence (Q99685 1-303 L169S/L176S) with S169L, S176L
Protocol: All rate-based assays were performed in black 384-well polypropylene PCR microplates (Abgene) in a total volume of 30 μL. […] Final compound concentrations ranged from 17 to 0.0003 μM.
The IC50 values for the following compounds were determined using Microsoft Office Excel from a fit of the equation to the concentration-response plot of the fractional activity as a function of inhibitor concentration.

MGL = biological target: T3, MGL (Rattus norvegicus, UniProt Q8R431); assay: 2-AG Accumulation Assay in rat brain homogenate; format: biochemical; conditions: percent of vehicle; for activity at 1 µM: compound @1 µM, read-out: Rat Brain 2AG % VehCntrl (%) @1 µM; for activity at 10 µM: compound @10 µM, read-out: Rat Brain 2AG % VehCntrl (%) @10 µM
T3 construct: one g rat brain was homogenized using a Polytron homogenizer; from tissue; host or cells: rat brain homogenate
T3 sequence (Q8R431 1-303): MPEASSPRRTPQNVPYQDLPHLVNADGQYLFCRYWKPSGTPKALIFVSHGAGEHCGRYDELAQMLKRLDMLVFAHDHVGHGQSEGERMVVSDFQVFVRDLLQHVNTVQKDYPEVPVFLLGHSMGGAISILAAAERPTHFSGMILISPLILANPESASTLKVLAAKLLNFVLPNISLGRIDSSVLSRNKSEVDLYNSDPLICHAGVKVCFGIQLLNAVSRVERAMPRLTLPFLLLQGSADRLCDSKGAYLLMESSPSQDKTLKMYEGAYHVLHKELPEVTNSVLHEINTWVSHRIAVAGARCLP

mutant MGL = biological target: T4, mutant MGL (Homo sapiens, UniProt Q99685, L169S/L176S); assay: MGL ThermoFluor Assay - Mutant; format: binding; conditions: 0.07 mg/ml mutant MGL, 100 μM ANS, pH 7.0
T4 construct: purified mutant MGL (mut-MGLL 11-313 L179S L186S)
T4 sequence (Q99685 1-303 L169S/L176S): T1 sequence (Q99685 1-303 L169S/L176S)
In short: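 Thermal-shift binding with 0.07 mg/ml L169S/L176S mutant MGL, 100 μM 1,8-ANS, 200 mM NaCl, 0.001% Tween-20, 50 mM PIPES pH 7.0, heated 40–90 °C at 1 °C/min.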

[3] = system: CFA-Induced Paw Radiant Heat Hypersensitivity; assay: CFA-Induced Paw Radiant Heat Hypersensitivity; format: in vivo; conditions: rat, HPβCD; for inhibition in vivo at 10 mg/kg / inhibition in vivo at 30 mg/kg: po, 5 h, group mean values, read-out: Method 1: peak % reversal; for Method 2: peak % reversal: individual animal values
Protocol: Each rat was placed in a test chamber on a warm glass surface and allowed to acclimate for approximately 10 min. A radiant thermal stimulus (beam of light) was focused through the glass onto the plantar surface of each hind paw in turn. The thermal stimulus was automatically shut off by a photoelectric relay when the paw was moved or when the cut-off time was reached (20 sec for radiant heat at ˜5 amps). An initial (baseline) response latency to the thermal stimulus was recorded for each animal prior to the injection of complete Freund's adjuvant (CFA). Twenty-four hours following intraplantar CFA injection, the response latency of the animal to the thermal stimulus was re-evaluated and compared to the animal's baseline response time. […] Immediately following the post-CFA latency assessment, the indicated test compound or vehicle was administered orally. Post-compound treatment withdrawal latencies were assessed at fixed time intervals, typically 30, 60, 120, 180, and 300 min.
The percent reversal (% R) of hypersensitivity was calculated in one of two different ways:
1) using group mean values or 2) using individual animal values. More specifically:
Method 1. For all compounds, the % R of hypersensitivity was calculated using the mean value for groups of animals at each time point according to the following formula: % reversal=[(group treatment response−group CFA response)/(group baseline response−group CFA response)]×100 Results were given for the maximum % reversal observed for each compound at any time point tested.
Method 2. For some compounds, the % R of hypersensitivity was calculated separately for each animal according to the following formula: % reversal=[(individual treatment response−individual CFA response)/(individual baseline response−individual CFA response)]×100.
Results are given as a mean of the maximum % reversal values calculated for each individual animal.

[4] = system: murine model of acute inflammation; conditions: murine model of acute inflammation (Comelli et al.); cited from earlier work
[5] = 10 mg/kg p.o., last time point 300 min
[6] = 30 mg/kg p.o., last time point 300 min (180 min for Cpd 17, 77)

| SMILES | IC50 [1] [nM] | IC50 [2] [nM] | activity at 1 µM (MGL) [%] | activity at 10 µM (MGL) [%] | Kd (mutant MGL) [nM] | inhibition in vivo at 10 mg/kg [3, 5] [%] | inhibition in vivo at 30 mg/kg [3, 6] [%] | Method 2: peak % reversal [3, 5] [%] | Method 2: peak % reversal [3, 6] [%] | antinociceptive effect [4] |
| --- | --- | --- | --- | --- | --- | --- | --- | --- | --- | --- |
| O=C(NC1CN(C2CN(C(=O)c3ccc4c(ccn4-c4ccc(C(F)(F)F)cc4)c3)C2)C1)c1nccs1 [Cpd 1, N-[1′-({1-[4-(Trifluoromethyl)phenyl]-1H-indol-5-yl}carbonyl)-1,3′-biazetidin-3-yl]-1,3-thiazole-2-carboxamide] | 5 | < 5 | 370 | 639 | 6 | -18.6 | 10.3 | −19.0 | 7.4 | – |
| Cc1c(C(=O)N2CC(N3CC(NC(=O)c4nccs4)C3)C2)sc2cc(C(F)(F)F)ccc12 [Cpd 56, N-(1′-{[3-Methyl-6-(trifluoromethyl)-1-benzothiophen-2-yl]carbonyl}-1,3′-biazetidin-3-yl)-1,3-thiazole-2-carboxamide] | – | 6 | 413 | – | 2.15 | – | -1.3 | – | – | – |
| O=C(c1ccc2c(ccn2-c2ccc(C(F)(F)F)cc2)c1)N1CC(N2CC(N3Cc4ccccc4C3=O)C2)C1 [Cpd 70, 2-[1′-({1-[4-(Trifluoromethyl)phenyl]-1H-indol-5-yl}carbonyl)-1,3′-biazetidin-3-yl]-2,3-dihydro-1H-isoindol-1-one] | 8 | < 5 | 483 | 736 | 3.5 | 28.2 | 4.7 | 22.5 | 5 | – |
| O=C(c1ccc(-c2ccc(C(F)(F)F)s2)cc1)N1CC(N2CC(N3Cc4ccccc4C3=O)C2)C1 [Cpd 76, 2-[1′-({4-[5-(Trifluoromethyl)thiophen-2-yl]phenyl}carbonyl)-1,3′-biazetidin-3-yl]-2,3-dihydro-1H-isoindol-1-one] | 15 | < 5 | 204 | 725 | 10 | 15.7 | 17.1 | 26.7 | 17.7 | – |
| O=C(c1ccc2oc(-c3ccccc3)nc2c1)N1CC(N2CC(N3Cc4ccccc4C3=O)C2)C1 [Cpd 77, 2-{1′-[(2-Phenyl-1,3-benzoxazol-5-yl)carbonyl]-1,3′-biazetidin-3-yl}-2,3-dihydro-1H-isoindol-1-one] | 16 | 31 | – | 478 | 100 | – | 9.9 | – | 6.9 | – |
| O=C(c1cc2cc(-c3ccccc3)ccc2s1)N1CC(N2CC(N3Cc4ccccc4C3=O)C2)C1 [Cpd 79, 2-{1′-[(5-Phenyl-1-benzothiophen-2-yl)carbonyl]-1,3′-biazetidin-3-yl}-2,3-dihydro-1H-isoindol-1-one] | 18 | 10 | 253 | 676 | 33.3 | – | 33.7 | – | – | – |
| O=C(Nc1cccc(-c2ccccc2)c1)OC1CCCCC1 [URB602] | – | – | – | – | – | – | – | – | – | showed an antinociceptive effect |

The next lines start with results.

| IC50 [1] [nM] | IC50 [2] [nM] | activity at 1 µM (MGL) [%] | activity at 10 µM (MGL) [%] | Kd (mutant MGL) [nM] | SMILES | inhibition in vivo at 10 mg/kg [3, 5] [%] | inhibition in vivo at 30 mg/kg [3, 6] [%] | Method 2: peak % reversal [3, 5] [%] | Method 2: peak % reversal [3, 6] [%] | antinociceptive effect [4] |
| --- | --- | --- | --- | --- | --- | --- | --- | --- | --- | --- |
| 6 | 8 | 620 | – | 22 | O=C(NC1CN(C2CN(C(=O)c3ccc(-c4cccc(C(F)(F)F)c4)cc3)C2)C1)c1cscn1 [Cpd 2, N-(1′-{[3′-(Trifluoromethyl)biphenyl-4-yl]carbonyl}-1,3′-biazetidin-3-yl)-1,3-thiazole-4-carboxamide] | – | 47.9 | – | – | – |
| 7 | 15 | 347 | 921 | 11.2 | O=C(NC1CN(C2CN(C(=O)c3ccc(-c4cccc(C(F)(F)F)c4)cc3)C2)C1)c1nccs1 [Cpd 5, N-(1′-{[3′-(Trifluoromethyl)biphenyl-4-yl]carbonyl}-1,3′-biazetidin-3-yl)-1,3-thiazole-2-carboxamide] | – | 57.4 | – | 55.8 | – |
| 48 | 37 | 355 | 486 | 333 | O=C(NC1CN(C2CN(C(=O)c3ccc4nc(-c5ccccc5)oc4c3)C2)C1)c1nccs1 [Cpd 17, N-{1′-[(2-Phenyl-1,3-benzoxazol-6-yl)carbonyl]-1,3′-biazetidin-3-yl}-1,3-thiazole-2-carboxamide] | – | 27 | – | 31.5 | – |
| – | < 5 | 434 | – | 10.7 | Cc1c(C(=O)N2CC(N3CC(NC(=O)c4cscn4)C3)C2)sc2cc(C(F)(F)F)ccc12 [Cpd 67, N-(1′-{[3-Methyl-6-(trifluoromethyl)-1-benzothiophen-2-yl]carbonyl}-1,3′-biazetidin-3-yl)-1,3-thiazole-4-carboxamide] | – | 35.7 | – | – | – |
| < 5 | < 5 | 449 | – | 2.7 | O=C(c1sc2cc(C(F)(F)F)ccc2c1Cl)N1CC(N2CC(N3Cc4ccccc4C3=O)C2)C1 [Cpd 99, 2-(1′-{[3-Chloro-6-(trifluoromethyl)-1-benzothiophen-2-yl]carbonyl}-1,3′-biazetidin-3-yl)-2,3-dihydro-1H-isoindol-1-one] | – | 27.6 | – | – | – |
| – | 6 | 534 | – | 4 | Cc1c(C(=O)N2CC(N3CC(N4Cc5ccccc5C4=O)C3)C2)sc2cc(C(F)(F)F)ccc12 [Cpd 101, 2-(1′-{[3-Methyl-6-(trifluoromethyl)-1-benzothiophen-2-yl]carbonyl}-1,3′-biazetidin-3-yl)-2,3-dihydro-1H-isoindol-1-one] | – | 6.1 | – | – | – |
